Measured values from patent US12421254B2, “KRAS modulators and uses thereof” (Quanta Therapeutics, Inc., priority 2023, dated 2025).
pIC50: −log10 of the molar value.

Legend:
[1] = target: GST-tagged KRAS-G12D (2-169) (Homo sapiens, UniProt P01116, G12D); experiment: Nucleotide exchange assay (NEA), SOS-mediated, HTRF, KRAS G12D; format: biochemical; conditions: Table 4; IC50 extracted at 30 min; 20 nM SOScat; read-out: NEA G12D IC50
Source text: (§1) This activity is tightly regulated by GTPase activating proteins (GAPs) and guanine nucleotide exchange factors (GEFs). GEFs, such as SOS1/2, activate Ras proteins by exchanging GDP for GTP, thus returning Ras to its active conformation (Simanshu, Nissley, & McCormick, 2017). […] Homogenous time resolved fluorescence (HTRF) was used to detect SOS-mediated binding of a fluorescent GTP analog, GTP-DY-647P1 (Jena Biosciences NU-820-647P1) to GST-tagged KRAS-G12D (2-169) or to GST-tagged KRAS-G12V (2-169, Reaction Biology, MSC-11-540).
(§2) GST-tagged KRAS-G12D (2-169) and anti-GST MAb Tb Cryptate Gold (CisBio 61GSTTLB) were diluted into assay buffer (20 mM HEPES, pH 7.3, 150 mM NaCl, 5 mM MgCl2, 0.05% BSA 0.0025% NP40, 1 mM DTT) to prepare a 2.5× donor solution. 5× compound was added to the protein mixture and incubated for 1 h at RT. 2.5× acceptor solution containing SOS1cat (564-1049, Reaction Biology MSC-11-502) and GTP-DY-647P1 were then added to the donor KRAS mixture such that the final concentration of the reaction contained 0.25 nM GST-tagged KRAS-G12D (2-169), 20 nM SOScat, and 150 nM GTP-DY-647P1. The reaction was monitored using at RT with the Envision multimode plate reader (Ex/Em 337/665, […]) up to 90 minutes at 5 minute intervals. To monitor KRAS-G12V SOS-mediated nucleotide exchange, 80 nM SOS was added to reaction instead of 20 nM. All other components were the same as previously described. Data was blanked to reactions without SOS1 and % inhibition was calculated such that DMSO only =0% and blank=100%. Curve fitting was done using a 4 parameter fit. Reported IC50 values were extracted at 30 min and 90 min for the KRAS-G12D and KRAS-G12V assays, respectively.
NEA KRAS G12D IC50 (uM) values of selected compounds are depicted in Table 2 with compounds having a value <0.01 uM as ++++; ≥0.01 uM to 0.1 uM as +++; ≥0.1 uM to 1 uM as ++; ≥1 uM to 20 uM as +; and ≥20 uM as NA.

[2] = target: GST-tagged KRAS-G12V (2-169) (Homo sapiens, UniProt P01116, G12V); experiment: Nucleotide exchange assay (NEA), SOS-mediated, HTRF, KRAS G12V; format: biochemical; conditions: Table 4; IC50 extracted at 90 min; 80 nM SOS
Chain of GST-tagged KRAS-G12V (2-169) (P01116 2-169 isoform P01116-2 G12V): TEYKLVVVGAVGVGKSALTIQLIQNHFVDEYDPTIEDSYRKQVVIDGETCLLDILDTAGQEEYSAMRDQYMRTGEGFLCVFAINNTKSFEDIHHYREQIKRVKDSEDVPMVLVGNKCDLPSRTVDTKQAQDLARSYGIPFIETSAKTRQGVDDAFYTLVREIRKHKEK
Source text: as §1, §2

Chain of GST-tagged KRAS-G12D (2-169) (P01116 2-169 isoform P01116-2 G12D): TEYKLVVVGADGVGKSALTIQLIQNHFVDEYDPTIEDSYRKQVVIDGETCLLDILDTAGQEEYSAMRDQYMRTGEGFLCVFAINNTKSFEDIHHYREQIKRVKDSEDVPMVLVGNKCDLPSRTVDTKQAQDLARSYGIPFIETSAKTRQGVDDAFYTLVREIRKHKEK

SMILES	pIC50 [1]	pIC50 [2]
N#Cc1c(N)sc2c1C1(CC2)CN(c2nc(OC[C@@]34CCCN3C[C@H](F)C4)nc(N(CCO)Cc3cc[nH]n3)n2)C1 [Compound 131, 2-amino-1′-[4-[[(2R,8S)-2-fluoro-1,2,3,5,6,7-hexahydropyrrolizin-8-yl]methoxy]-6-[2-hydroxyethyl(1H-pyrazol-5-ylmethyl)amino]-1,3,5-triazin-2-yl]spiro[5,6-dihydrocyclopenta[b]thiophene-4,3′-azetidine]-3-carbonitrile]	6.00 to 7.00	7.00 to 8.00
CC(c1ccn(C)n1)N(C)c1nc(OC[C@@]23CCCN2C[C@H](F)C3)nc(N2CC3(CCc4sc(N)c(C#N)c43)C2)n1 (stereo partly drawn) [Compound 119, 2-amino-1′-[4-[[(2R,8S)-2-fluoro-1,2,3,5,6,7-hexahydropyrrolizin-8-yl]methoxy]-6-[methyl-[1-(1-methylpyrazol-3-yl)ethyl]amino]-1,3,5-triazin-2-yl]spiro[5,6-dihydrocyclopenta[b]thiophene-4,3′-azetidine]-3-carbonitrile]	4.70 to 6.00	4.70 to 6.00
CC(c1cccnc1N)N(C)c1nc(OC[C@@]23CCCN2C[C@H](F)C3)nc(N2CC3(C2)SCc2sc(N)c(C#N)c23)n1 (stereo partly drawn) [Compound 115, 2-amino-1′-[4-[1-(2-amino-3-pyridyl)ethyl-methyl-amino]-6-[[(2R,8S)-2-fluoro-1,2,3,5,6,7-hexahydropyrrolizin-8-yl]methoxy]-1,3,5-triazin-2-yl]spiro[6H-thieno[3,4-b]thiophene-4,3′-azetidine]-3-carbonitrile]	> 8.00	> 8.00
C[C@@]1(CO)C[C@H](O)CN1c1nc(OC[C@@]23CCCN2C[C@H](F)C3)nc(N2CC3(CCc4sc(N)c(C#N)c43)C2)n1 [Compound 66, 2-amino-1′-[4-[[(2R,8S)-2-fluoro-1,2,3,5,6,7-hexahydropyrrolizin-8-yl]methoxy]-6-[(2S,4S)-4-hydroxy-2-(hydroxymethyl)-2-methyl-pyrrolidin-1-yl]-1,3,5-triazin-2-yl]spiro[5,6-dihydrocyclopenta[b]thiophene-4,3′-azetidine]-3-carbonitrile]	6.00 to 7.00	7.00 to 8.00
CCN(c1nc(OC[C@]2(C(F)F)CCCN2)nc(N2CC3(C2)SCc2sc(N)c(C#N)c23)n1)[C@H](C)c1cccnc1N [Compound 221, 2-amino-1′-[4-[[(1R)-1-(2-amino-3-pyridyl)ethyl]-ethyl-amino]-6-[[(2S)-2-(difluoromethyl)pyrrolidin-2-yl]methoxy]-1,3,5-triazin-2-yl]spiro[6H-thieno[3,4-b]thiophene-4,3′-azetidine]-3-carbonitrile]	> 8.00	> 8.00
N#Cc1c(N)sc2c1C1(CC2)CN(c2nc(N[C@@H]3COC[C@@H]3O)nc(OC[C@@]34CCCN3C[C@H](F)C4)n2)C1 (racemic) [Compound 103, 2-amino-1′-[4-[[(2R,8S)-2-fluoro-1,2,3,5,6,7-hexahydropyrrolizin-8-yl]methoxy]-6-[[rac-(3R,4R)-4-hydroxytetrahydrofuran-3-yl]amino]-1,3,5-triazin-2-yl]spiro[5,6-dihydrocyclopenta[b]thiophene-4,3′-azetidine]-3-carbonitrile]	4.70 to 6.00	6.00 to 7.00
N#Cc1c(N)sc2c1C1(CC2)CN(c2nc(OC[C@@]34CCCN3C[C@H](F)C4)nc(N3CCSc4ncccc4C3)n2)C1 [Compound 99, 2-amino-1′-[4-(3,5-dihydro-2H-pyrido[3,2-f][1,4]thiazepin-4-yl)-6-[[(2R,8S)-2-fluoro-1,2,3,5,6,7-hexahydropyrrolizin-8-yl]methoxy]-1,3,5-triazin-2-yl]spiro[5,6-dihydrocyclopenta[b]thiophene-4,3′-azetidine]-3-carbonitrile]	4.70 to 6.00	6.00 to 7.00
N#Cc1c(N)sc2c1C1(CN(c3nc(OC[C@@]45CCCN4C[C@H](F)C5)nc(Oc4cn[nH]c4)n3)C1)SC2 [Compound 164, 2-amino-1′-[4-[[(2R,8S)-2-fluoro-1,2,3,5,6,7-hexahydropyrrolizin-8-yl]methoxy]-6-(1H-pyrazol-4-yloxy)-1,3,5-triazin-2-yl]spiro[6H-thieno[3,4-b]thiophene-4,3′-azetidine]-3-carbonitrile]	6.00 to 7.00	7.00 to 8.00
CN(c1nc(OC[C@@]23CCCN2C[C@H](F)C3)nc(N2CC3(CCc4sc(N)c(C#N)c43)C2)n1)[C@@H]1COC[C@H]1O (racemic) [Compound 90, 2-amino-1′-[4-[[(2R,8S)-2-fluoro-1,2,3,5,6,7-hexahydropyrrolizin-8-yl]methoxy]-6-[[rac-(3R,4S)-4-hydroxytetrahydrofuran-3-yl]-methyl-amino]-1,3,5-triazin-2-yl]spiro[5,6-dihydrocyclopenta[b]thiophene-4,3′-azetidine]-3-carbonitrile]	6.00 to 7.00	6.00 to 7.00
N#Cc1c(N)sc2c1C1(CC2)CN(c2nc(OC[C@@]34CCCN3C[C@H](F)C4)nc(N3CCCC(C#N)C(O)C3)n2)C1 (mixture of isomers) [Compound 96, 2-amino-1′-[4-(4-cyano-3-hydroxy-azepan-1-yl)-6-[[rac-(2R,8S)-2-fluoro-1,2,3,5,6,7-hexahydropyrrolizin-8-yl]methoxy]-1,3,5-triazin-2-yl]spiro[5,6-dihydrocyclopenta[b]thiophene-4,3′-azetidine]-3-carbonitrile]	6.00 to 7.00	7.00 to 8.00
COC[C@@H]1CC[C@@H](COc2nc(N3CC4(C3)SCc3sc(N)c(C#N)c34)nc(N(CC(F)F)C(C)c3cccnc3N)n2)N1 (mixture of isomers) [Compound 211, 2-amino-1′-[4-[[(1R)-1-(2-amino-3-pyridyl)ethyl]-(2,2-difluoroethyl)amino]-6-[[(2SR,5SR)-5-(methoxymethyl)pyrrolidin-2-yl]methoxy]-1,3,5-triazin-2-yl]spiro[6H-thieno[3,4-b]thiophene-4,3′-azetidine]-3-carbonitrile]	> 8.00	> 8.00
C[C@H](c1cccnc1N)N(CC(F)F)c1nc(OC[C@@H]2C[C@@H](F)CN2C)nc(N2CC3(C2)SCc2sc(N)c(C#N)c23)n1 [Compound 197, 2′-amino-1-(4-(((R)-1-(2-aminopyridin-3-yl)ethyl)(2,2-difluoroethyl)amino)-6-(((2S,4R)-4-fluoro-1-methylpyrrolidin-2-yl)methoxy)-1,3,5-triazin-2-yl)-6′H-spiro[azetidine-3,4′-thieno[3,4-b]thiophene]-3′-carbonitrile]	> 8.00	> 8.00
C[C@H](c1cccnc1N)N(CC(N)=O)c1nc(OC[C@@]23CCCN2C[C@H](F)C3)nc(N2CC3(C2)SCc2sc(N)c(C#N)c23)n1 [Compound 199, 2-[[4-(2-amino-3-cyano-spiro[6H-thieno[3,4-b]thiophene-4,3′-azetidine]-1′-yl)-6-[[(2R,8S)-2-fluoro-1,2,3,5,6,7-hexahydropyrrolizin-8-yl]methoxy]-1,3,5-triazin-2-yl]-[(1R)-1-(2-amino-3-pyridyl)ethyl]amino]acetamide]	> 8.00	> 8.00
N#Cc1c(N)sc2c1C1(CN(c3nc(OC[C@@]45CCCN4C[C@H](F)C5)nc(N(Cc4cccnc4N)C4COC4)n3)C1)SC2 [Compound 217, 2-amino-1′-[4-[(2-amino-3-pyridyl)methyl-(oxetan-3-yl)amino]-6-[[(2R,8S)-2-fluoro-1,2,3,5,6,7-hexahydropyrrolizin-8-yl]methoxy]-1,3,5-triazin-2-yl]spiro[6H-thieno[3,4-b]thiophene-4,3′-azetidine]-3-carbonitrile]	4.70 to 6.00	6.00 to 7.00
C[C@]1(O)C[C@@H](O)CN(c2nc(OC[C@@]34CCCN3C[C@H](F)C4)nc(N3CC4(CCc5sc(N)c(C#N)c54)C3)n2)C1 [Compound 46, 2-amino-1′-[4-[(3S,5R)-3,5-dihydroxy-3-methyl-1-piperidyl]-6-[[(2R,8S)-2-fluoro-1,2,3,5,6,7-hexahydropyrrolizin-8-yl]methoxy]-1,3,5-triazin-2-yl]spiro[5,6-dihydrocyclopenta[b]thiophene-4,3′-azetidine]-3-carbonitrile]	6.00 to 7.00	7.00 to 8.00
CN(Cc1ccn[nH]1)c1nc(OC[C@@]23CCCN2C[C@H](F)C3)nc(N2CC3(CCc4sc(N)c(C#N)c43)C2)n1 (racemic) [Compound 105, 2-amino-1′-[4-[methyl(1H-pyrazol-5-ylmethyl)amino]-6-[[rac-(2R,8S)-2-fluoro-1,2,3,5,6,7-hexahydropyrrolizin-8-yl]methoxy]-1,3,5-triazin-2-yl]spiro[5,6-dihydrocyclopenta[b]thiophene-4,3′-azetidine]-3-carbonitrile]	4.70 to 6.00	6.00 to 7.00
